Results reported in US20210092956A1, “Safening Rice Against Group 15 Herbicides” (THE BOARD OF TRUSTEES OF THE UNIVERSITY OF ARKANSAS, priority 2019, published 2021).

Experiments:
Diamond rice = tested on: Diamond rice; set-up: species or system Oryza sativa L.; details: in vivo
Method: The experiment was conducted within a growth chamber at 13.8° C. (night) and 23.8° C. (day) using a 10-hour night and 14-hour day photoperiod. Diamond rice was planted in pots filled to the same weight of soil to maintain 80% soil moisture throughout the experiment. […] Data were analyzed using R and subjected to ANOVA. Means were separated using Fisher's LSD (α=0.05).

barnyardgrass = test: Field weed control with ME acetochlor, barnyardgrass; type: in vivo, Echinochloa crus-galli; details: fenclorim seed treatment with ME acetochlor
Method: (§1) The experiment was conducted under standard small-plot research practices. Diamond rice was planted at 72 seeds m^−1 row. […] Data were analyzed using R and subjected ANOVA. Means were separated using Fisher's LSD (α=0.05).

weedy rice or red rice = test: Field weed control with ME acetochlor, weedy rice; type: in vivo, Oryza sativa L. var. sylvatica; details: fenclorim seed treatment with ME acetochlor
Method: as §1

## Clc1cc(Cl)nc(-c2ccccc2)n1 [fenclorim, 4,6-dichloro-2-phenyl-pyrimidine]
Diamond rice
  Biomass: 99%
  Height: 13.7 cm
  Injury: 0%
  Stand reduction: 3%
barnyardgrass
  effect of the seed treatment on weed control: did not negatively affect weed control
Weedy rice or red rice
  effect of the seed treatment on weed control: did not negatively affect weed control
